ChEMBL document CHEMBL2016485, “Design and optimization of quinazoline derivatives as melanin concentrating hormone receptor 1 (MCHR1) antagonists: part 2” (Bioorg Med Chem Lett, 2012)
Converted amounts (≈) assume the structure as drawn.

What was measured:
[1] = AUC at steady state in diet-induced obese C57BL/6J mouse model plasma at 100 mg/kg, po qd dosed through CMC/Tween 80 suspension for 14 days measured at day 14; format: ADME, organism-based; set-up: dose 100 mg/kg, route oral
[2] = Cmax in mouse at 30 mg/kg, po relative to initial plasma concentration; format: ADME, organism-based; set-up: dose 30 mg/kg, route oral
[3] = Cmax at steady state in diet-induced obese C57BL/6J mouse model brain at 100 mg/kg, po qd dosed through CMC/Tween 80 suspension for 14 days measured at day 14; format: ADME, organism-based; set-up: dose 100 mg/kg, route oral
[4] = Cmax in rat at 30 mg/kg, po relative to initial plasma concentration; format: ADME, organism-based; set-up: dose 30 mg/kg, route oral
[5] = Solubility in fasted state simulated intestinal fluid at pH 6.5 at 0.5 hrs; format: physicochemical
[6] = Cmax at steady state in diet-induced obese C57BL/6J mouse model plasma at 100 mg/kg, po qd dosed through CMC/Tween 80 suspension for 14 days measured at day 14; format: ADME, organism-based; set-up: dose 100 mg/kg, route oral
[7] = AUC (0 to 24 hrs) in rat at 30 mg/kg, po; format: ADME, organism-based; set-up: time < 24 hr, dose 30 mg/kg, route oral; settings: plasma
[8] = AUC at steady state in diet-induced obese C57BL/6J mouse model brain at 100 mg/kg, po qd dosed through CMC/Tween 80 suspension for 14 days measured at day 14; format: ADME, organism-based; set-up: dose 100 mg/kg, route oral
[9] = AUC (0 to 24 hrs) in mouse at 30 mg/kg, po; format: ADME, organism-based; set-up: time < 24 hr, dose 30 mg/kg, route oral; settings: plasma
[10] = Cmax at steady state in diet-induced obese C57BL/6J mouse model plasma at 30 mg/kg, po bid dosed through micronized suspension for 14 days measured at day 14; format: ADME, organism-based; set-up: dose 30 mg/kg, route oral
[11] = Cmax at steady state in diet-induced obese C57BL/6J mouse model brain at 30 mg/kg, po bid dosed through micronized suspension for 14 days measured at day 14; format: ADME, organism-based; set-up: dose 30 mg/kg, route oral
[12] = AUC at steady state in diet-induced obese C57BL/6J mouse model plasma at 30 mg/kg, po bid dosed through micronized suspension for 14 days measured at day 14; format: ADME, organism-based; set-up: dose 30 mg/kg, route oral
[13] = AUC at steady state in diet-induced obese C57BL/6J mouse model brain at 30 mg/kg, po bid dosed through micronized suspension for 14 days measured at day 14; format: ADME, organism-based; set-up: dose 30 mg/kg, route oral
[14] = AUC (0 to 24 hrs) in dog at 6 mg/kg, iv; format: ADME, organism-based, Canis lupus familiaris; set-up: time < 24 hr, dose 6 mg/kg, route intravenous; settings: plasma
[15] = Cmax in dog at 6 mg/kg, iv relative to initial plasma concentration; format: ADME, organism-based, Canis lupus familiaris; set-up: dose 6 mg/kg, route intravenous
[16] = Cmax in beagle dog at 6 mg/kg, iv; format: ADME, organism-based, Canis lupus familiaris; set-up: dose 6 mg/kg, route intravenous; settings: in vivo
[17] = Cmax in dog at 5 mg/kg, po relative to initial plasma concentration; format: ADME, organism-based, Canis lupus familiaris; set-up: dose 5 mg/kg, route oral
[18] = AUC (0 to 24 hrs) in dog at 5 mg/kg, po; format: ADME, organism-based, Canis lupus familiaris; set-up: time < 24 hr, dose 5 mg/kg, route oral; settings: plasma

An AUC at 336 h [1] of 104 µM·h, a Cmax [2] of 2.1 µM and a Cmax [3] of 2.1 µM were found for `Cc1nc(N2CCC(O)(C3CC3)CC2)nc2ccc(NC(=O)/C=C/c3ccc(Cl)cc3)cc12` in this work. The Cmax [4] was 2.4 µM, the solubility at 0.5 h [5] was 1.7 µM (≈ 0.787 µg/mL) and the Cmax [6] was 5.9 µM. It also gave an AUC(0-t) at 24 h [7] of 26.6 µM·h, an AUC at 336 h [8] of 30.2 µM·h and an AUC(0-t) at 24 h [9] of 33.4 µM·h.
A Cmax [10] of 16.5 µM, a Cmax [11] of 6.3 µM and an AUC at 336 h [12] of 312 µM·h were found for `Cc1nc(N2CCC(N3CCOCC3=O)CC2)nc2ccc(NC(=O)/C=C/c3ccc(OC(F)(F)F)cc3)cc12` in this work. The AUC at 336 h [13] was 104 µM·h.
A Cmax [10] of 17.7 µM, a Cmax [11] of 5.6 µM and an AUC at 336 h [12] of 385 µM·h were found for `Cc1nc(N2CCC(N3CCCC3=O)CC2)nc2ccc(NC(=O)/C=C/c3ccc(OC(F)(F)F)cc3)cc12` in this work. For the same compound, the AUC at 336 h [13] was 95.1 µM·h.
A Cmax [10] of 12.7 µM, a Cmax [11] of 3.7 µM and an AUC at 336 h [12] of 284 µM·h were found for `Cc1nc(N2CCC(N3CCOC3=O)CC2)nc2ccc(NC(=O)/C=C/c3ccc(OC(F)(F)F)cc3)cc12` in this work. The AUC at 336 h [13] was 67.6 µM·h.
An AUC(0-t) at 24 h [14] of 43.5 µM·h, a Cmax [15] of 9.9 µM and a Cmax [4] of 7.8 µM were found for `CS(=O)(=O)O.Cc1nc(N2CCC(O)(C3CC3)CC2)nc2ccc(NC(=O)/C=C/c3ccc(Cl)cc3)cc12` in this work. The Cmax [16] was 6.4 µM, the Cmax [17] was 2.5 µM and the AUC(0-t) at 24 h [18] was 37.7 µM·h. It also gave a solubility at 0.5 h [5] of 11.2 µM and an AUC(0-t) at 24 h [7] of 79.6 µM·h.
